Test results as given in publication PMC2597681 (Biochemistry, 2008).
Like-named read-outs stand apart in the source and are kept apart here.

Columns and labels:
ND1 subunit [1] = molecular target: T1, ND1 subunit (Bos taurus, UniProt P03887+P17694); details: ref [19]; cited from earlier work
[2] = molecular target: T2, bovine heart mitochondrial complex I (NADH-ubiquinone oxidoreductase) (Bos taurus, UniProt P03887+P17694); details: ref [27]; cited from earlier work
[3] = molecular target: bovine heart mitochondrial complex I (ubiquinol-NAD+ oxidoreductase activity) (Bos taurus, UniProt P03887+P17694); details: ref [27]; cited from earlier work
[4] = system: 49 kDa subunit and an unidentified subunit of complex I; test: Suppression of specific binding of [125I]AFP to SMP; parameters: species or system bovine; details: [125I]AFP 6 nM; competitor 60, 600 or 6,000 nM; SMP 1.0 mg of protein/mL
ND1 subunit [5] = molecular target: T1, ND1 subunit; test: Suppression of specific photoaffinity labeling of the ND1 subunit by [125I]TDA; format: binding, bovine; details: [125I]TDA 3 nM; SMP 0.3 mg of protein/mL
[6] = molecular target: T2, bovine heart mitochondrial complex I (NADH-ubiquinone oxidoreductase); test: NADH oxidase activity in SMP; format: biochemical

T1 sequence (P03887 whole entry): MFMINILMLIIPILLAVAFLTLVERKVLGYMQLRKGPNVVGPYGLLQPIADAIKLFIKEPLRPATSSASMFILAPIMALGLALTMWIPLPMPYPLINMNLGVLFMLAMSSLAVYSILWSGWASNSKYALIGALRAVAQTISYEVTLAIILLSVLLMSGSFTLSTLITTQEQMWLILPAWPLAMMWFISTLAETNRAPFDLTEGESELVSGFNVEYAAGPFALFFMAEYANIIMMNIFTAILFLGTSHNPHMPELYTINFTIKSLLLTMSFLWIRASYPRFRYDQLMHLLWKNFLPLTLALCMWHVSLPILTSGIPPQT
T1 sequence (P17694 34-463): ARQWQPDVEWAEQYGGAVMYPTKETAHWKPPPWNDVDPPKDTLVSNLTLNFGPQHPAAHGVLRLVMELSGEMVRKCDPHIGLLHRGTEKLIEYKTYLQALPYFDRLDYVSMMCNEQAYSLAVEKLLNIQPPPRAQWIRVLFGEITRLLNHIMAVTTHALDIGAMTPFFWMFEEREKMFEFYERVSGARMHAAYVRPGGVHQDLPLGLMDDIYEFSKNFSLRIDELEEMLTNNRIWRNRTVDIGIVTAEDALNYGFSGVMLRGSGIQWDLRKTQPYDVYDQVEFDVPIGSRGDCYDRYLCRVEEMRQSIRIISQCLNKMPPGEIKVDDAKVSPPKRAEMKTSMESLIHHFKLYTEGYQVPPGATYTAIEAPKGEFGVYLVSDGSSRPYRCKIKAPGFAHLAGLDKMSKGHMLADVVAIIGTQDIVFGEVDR
T1 sequence (P42026 38-216 partner): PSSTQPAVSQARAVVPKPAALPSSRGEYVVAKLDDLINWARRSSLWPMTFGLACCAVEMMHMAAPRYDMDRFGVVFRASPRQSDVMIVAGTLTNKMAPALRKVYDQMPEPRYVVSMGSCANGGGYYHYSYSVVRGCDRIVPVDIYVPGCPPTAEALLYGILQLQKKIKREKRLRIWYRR
T2 sequence (P17694 34-463): as the sequence (P17694 34-463) above
T2 sequence (P03887 whole entry): as the sequence (P03887 whole entry) above
T2 sequence (P42026 38-216 partner): as the sequence (P42026 38-216 partner) above
bovine heart mitochondrial complex I (ubiquinol-NAD+ oxidoreductase activity), sequence (P17694 34-463): as the sequence (P17694 34-463) above
bovine heart mitochondrial complex I (ubiquinol-NAD+ oxidoreductase activity), sequence (P03887 whole entry): as the sequence (P03887 whole entry) above
bovine heart mitochondrial complex I (ubiquinol-NAD+ oxidoreductase activity), sequence (P42026 38-216 partner): as the sequence (P42026 38-216 partner) above

Compound	Suppression of specific binding of [125I]TDA to ND1 (in words) (ND1 subunit [1])	IC50 values, Forward electron transfer [2]	IC50 (R)/IC50 (F), ratio of IC50 (reverse)/IC50 (forward) [3]	IC50 values, Reverse electron transfer [3]	Suppression of specific labeling of the two subunits by [125I]AFP (in words) [4]	Suppression of specific binding of [125I]TDA to ND1 (in words) (ND1 subunit [5])	IC50 [6] [nM]
C/C=C(\C)[C@H](O)[C@H](C)/C=C(C)/C=C/C/C(C)=C/Cc1nc(OC)c(OC)c(O)c1C [piericidin A]	completely suppress	81 ± 7.1 pmol inhibitor/mg of protein	0.59	48 ± 4.3 pmol inhibitor/mg of protein			
CC(C)(C)c1ccc(CSc2cnn(C(C)(C)C)c(=O)c2Cl)cc1 [pyridaben]	completely suppress				suppressed the radiolabeling		
CCCCCCCCCCC(O)C1CCC(C2CCC(C(O)CCCCCCCCCCC(O)CC3=CC(C)OC3=O)O2)O1 (stereo not drawn) [Bullatacin, bullatacin]		46 ± 5.2 pmol inhibitor/mg of protein	0.61	28 ± 4.4 pmol inhibitor/mg of protein	suppressed the radiolabeling	suppressed the specific binding more efficiently than the piperazines	0.85
C=C(C)[C@H]1Cc2c(ccc3c2O[C@@H]2COc4cc(OC)c(OC)cc4[C@@H]2C3=O)O1 [rotenone]					suppressed the radiolabeling		
Cc1nn(C)c(Oc2ccccc2)c1C=NOCc1ccc(C(=O)OC(C)(C)C)cc1 [fenpyroximate]	completely suppress				suppressed the radiolabeling		
